Key:
Trypanosoma cruzi [1] = experiment: GSK_TCAKS: pIC50 Trypanosoma cruzi viability assay using beta-GAL activity. This assay was run at single shot at 5uM compound concentration per well. The biological reagents consisted of NIH-3T3 host cells and trypomastigotes parasitic cells; both cell types were set to a 3.3 * 10^5 cells/mL dilution in assay DMEM by means of a CASY cell counter device using a 60um capillary. 6 uL of the mixture were dispensed per well (about 1 * 10^3 host-cells and 1 * 10^3 parasites) with a Multidrop Combi dispenser. […] In all wells, the percentage of DMSO never exceeded 0.5%. Plates incubated for four days at 37C, 5% CO2. The substrate used for the assay fluorescence intensity (FLINT) readout was resorufin-beta-D-galactopiranoside (Sigma-Aldrich) at 5uM per well. It was diluted in PBS supplemented with the soft detergent Igepal (Fluka).; format: functional, organism-based, Mus musculus; conditions: Tulahuen, NIH3T3
Trypanosoma cruzi [2] = experiment: (§1) GSK_TCAKS: pIC50 Trypanosoma cruzi Imaging: Infected Cells. […] Cells were then washed once with PBS before infection. T. cruzi trypomastigotes, collected at days 5 to 8 after infection from LLC-MK2 parasite infected cultures, were allowed to swim out for 4h at 37C from a centrifuged pellet (2,500 rpm/10 min/room temperature). Trypomastigotes were then collected and counted in a CASY Cell Counter. Trypomastigotes, in supplemented DMEM, were added to H9c2 cultures in a multiplicity of infection of 1 and incubated for 18 h. Cells were washed once with PBS before incubation of the infected H9c2 monolayer with trypsin (Life-Technologies) to detach cells from the flask. Cells were counted in a CASY Cell Counter using a 150 um capillary and their density set at 5 * 10^4 cells per mL in supplemented assay DMEM. Infected H9c2 were dispensed into 384-well poly-lysine coated assay plates at 50uL per well using a Multidrop Combi dispenser. After seeding them, the plates were incubated at 37C, 5% CO2 for 72h. Cultures were then fixed and stained by addition of 50 uL of a solution containing 8% formaldehyde and 4 uM DRAQ5 DNA dye (BioStatus, UK) per well. […] Five images were collected per well for reliable statistical analysis. Automated image analysis was performed with a script developed on Acapella High Content Imaging and Analysis Software (PerkinElmer). Output: percentage of infected cells per well as a second infection marker.; format: functional, organism-based, Rattus norvegicus; conditions: H9c2, 4 h
Trypanosoma cruzi [3] = experiment: GSK_TCAKS: pIC50 Trypanosoma cruzi Imaging: Amastigotes/Cell. […] Cells were then washed once with PBS before infection. T. cruzi trypomastigotes, collected at days 5 to 8 after infection from LLC-MK2 parasite infected cultures, were allowed to swim out for 4h at 37C from a centrifuged pellet (2,500 rpm/10 min/room temperature). Trypomastigotes were then collected and counted in a CASY Cell Counter. Trypomastigotes, in supplemented DMEM, were added to H9c2 cultures in a multiplicity of infection of 1 and incubated for 18 h. Cells were washed once with PBS before incubation of the infected H9c2 monolayer with trypsin (Life-Technologies) to detach cells from the flask. Cells were counted in a CASY Cell Counter using a 150 um capillary and their density set at 5 * 10^4 cells per mL in supplemented assay DMEM. Infected H9c2 were dispensed into 384-well poly-lysine coated assay plates at 50uL per well using a Multidrop Combi dispenser. After seeding them, the plates were incubated at 37C, 5% CO2 for 72h. Cultures were then fixed and stained by addition of 50 uL of a solution containing 8% formaldehyde and 4 uM DRAQ5 DNA dye (BioStatus, UK) per well. […] Five images were collected per well for reliable statistical analysis. Automated image analysis was performed with a script developed on Acapella High Content Imaging and Analysis Software (PerkinElmer). Output: number of amastigotes per cell as infection level measurement.; format: functional, organism-based, Rattus norvegicus; conditions: H9c2, 4 h
Trypanosoma cruzi [4] = experiment: as §1, with “H2C9” for “Trypanosoma cruzi”, “H9c2 Host Cardiomyocytes.” for “Infected Cells.”, “Number” for “percentage”, “H9c2 Host Cardiomyocytes nuclei to determine drug-related cytotoxicity.” for “infected cells per well as a second infection marker.”; format: functional, organism-based, Rattus norvegicus; conditions: H9c2, 4 h
Leishmania donovani [5] = experiment: GSK_TCAKS: pIC50 Leishmania donovani viability assay using fluorescence intensity. Assay plates (1536-well) were prepared by adding 30nL per well of compound. For single shot assay, the final compound concentration was 5uM. […] Briefly, eGFP LdBOB axenic amastigotes were harvested, fixed and counted in a CASY cell counter (Roche-Applied Science). A final concentration of 1.5 * 10^5 cells per well were prepared in amastigote media containing 500 U/mL penicillin/streptomycin (Invitrogen) and 6uL was dispensed to each experimental well using a Multidrop Combi dispenser (Thermo Scientific). 6uL of assay media was dispensed to control columns used as reference for 100% compound response. Following incubation for 72 h at 37C, 5% CO2, 2 uL of resazurin was added to each well at a final concentration of 0.5 mM in phosphate buffered saline (PBS) with IGEPAL (Sigma-Aldrich), 0.05% (v/v).; format: functional, organism-based
Leishmania donovani [6] = experiment: (§2) GSK_TCAKS: pIC50 Leishmania donovani Imaging: Infected Macrophages. Assay plates (384-well) were prepared by adding 250nL of compound to each well. For single shot assay, the final compound concentration was 5 uM. […] Automated image analysis was performed with a script developed on Acapella High Content Imaging and Analysis Software (PerkinElmer). Output: Percent of infected macrophage cells were reported for each well.; format: functional, organism-based, Homo sapiens; conditions: THP-1
Leishmania donovani [7] = experiment: as §2, with “Amastigotes/Macrophages.” for “Infected Macrophages.”, “Average number” for “Percent”, “amastigotes per” for “infected”, “cell” for “cells”; format: functional, organism-based, Homo sapiens; conditions: THP-1
Leishmania donovani [8] = experiment: as §2, with “THP-1 Host” for “Infected”, “THP-1 cell count” for “Percent of infected macrophage cells”; format: functional, organism-based, Homo sapiens
[9] = system: Trypanosoma brucei brucei; experiment: GSK_TCAKS: pIC50 Trypanosoma brucei viability assay using fluorescence intensity. Assay plates (1536-well) were prepared by dispensing 25nL of compound solution per well using an Echo acoustic dispenser (Labcyte).; format: functional, organism-based; conditions: Lister 427, 2 h
[10] = system: Trypanosoma brucei brucei; experiment: GSK_TCAKS: pIC50 Trypanosoma brucei viability assay using luminiscence. Assay plates (1536-well) were prepared. T. brucei cultures were harvested and counted in a CASY cell counter. A parasite suspension was prepared at a final concentration of 5 * 10^4 cells/mL in complete HMI9 medium and 6uL was dispensed to all wells containing compounds using a Multidrop Combi dispenser. 6uL of HMI9 media with 0.4% DMSO were dispensed to control columns. Plates were incubated for 24 h at 37C, 5% CO2 then tempered for 10 min at room temperature. ATP content was quantified by adding 4 uL of CellTiter-Glo Reagent (Promega) according to the manufacturer's instructions. Luminescence was measured using a ViewLux.; format: functional, organism-based; conditions: Lister 427, CASY
[11] = GSK_TCAKS: pIC50 HepG2 human cell line viability assay using luminiscence. […] Seeding density was checked to ensure that new mono-layers were not more than 50% confluent at the time of harvesting. Cell suspension was added to 500 mL of the same medium at a final density of 1.2 * 10^5 cells/mL. This cell suspension was dispensed (25 uL, 3000 cells per well) into 384-well clear-bottom plates using a Multidrop Combi dispenser. Prior to addition of the cell suspension, the screening compounds (250 nL) were pre-dispensed into the plates with an Echo liquid handler. Plates were incubated for 48 h at 37C, 5% CO2. After incubation, plates equilibrated at room temperature for 30 min before proceeding to develop the luminescent signal. The signal developer, CellTiter-Glo Reagent, was allowed to equilibrate at room temperature for 30 min and added to the plates (25uL per well) using a Multidrop Combi dispenser. Plates were left for 10 min at room temperature for stabilization and then read using a ViewLux.; format: toxicity, cell-based
[12] = target: Sterol 14-alpha demethylase (Trypanosoma cruzi (strain CL Brener), UniProt Q7Z1V1); experiment: GSK_TCAKS: pIC50 CYP51 from Trypanosoma cruzi.; format: functional
Sequence of Sterol 14-alpha demethylase (Q7Z1V1 whole entry): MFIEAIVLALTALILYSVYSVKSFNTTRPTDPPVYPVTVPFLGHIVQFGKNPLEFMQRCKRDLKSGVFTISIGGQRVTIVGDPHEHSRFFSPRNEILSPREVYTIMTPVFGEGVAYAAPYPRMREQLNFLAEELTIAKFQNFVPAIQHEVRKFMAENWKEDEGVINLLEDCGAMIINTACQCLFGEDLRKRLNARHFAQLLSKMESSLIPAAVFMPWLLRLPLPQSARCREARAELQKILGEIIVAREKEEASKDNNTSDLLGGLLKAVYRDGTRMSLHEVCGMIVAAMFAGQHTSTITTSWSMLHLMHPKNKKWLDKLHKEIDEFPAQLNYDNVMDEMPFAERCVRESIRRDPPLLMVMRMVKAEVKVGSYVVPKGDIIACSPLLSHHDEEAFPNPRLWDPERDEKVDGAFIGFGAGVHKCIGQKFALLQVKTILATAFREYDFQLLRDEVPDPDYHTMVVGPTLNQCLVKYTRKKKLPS

SMILES | IC50 (Trypanosoma cruzi [1]) [µM] | IC50 (Trypanosoma cruzi [2]) [µM] | IC50 (Trypanosoma cruzi [3]) [µM] | IC50 (Trypanosoma cruzi [4]) [µM] | IC50 (Leishmania donovani [5]) [µM] | IC50 (Leishmania donovani [6]) [µM] | IC50 (Leishmania donovani [7]) [µM] | IC50 (Leishmania donovani [8]) [µM] | IC50 [9] [µM] | IC50 [10] [µM] | IC50 at 48 h [11] [µM] | IC50 [12] [µM]
CC(=O)Nc1ccc(-c2cnc(N)c(-c3nc4ccc(F)cc4[nH]3)c2)cc1 | 0.631 | > 50.1 | > 50.1 | 0.794 | 6.31 | 1 | 0.501 | 7.94 | 0.631 | 2 | 10 | 63.1
Cc1ccc(NC(C)C(=O)Nc2ccc(C#N)cc2)cc1S(=O)(=O)N1CCCCC1 (centres undefined) | 10 | 7.94 | 7.94 | > 50.1 | 0.794 | 10 | 5.01 | 50.1 | 7.94 | 10 | 79.4 | 15.8
COc1ccc(OC)c(S(=O)(=O)N(Cc2c(F)cccc2F)[C@@H]2CCN(C#N)C2)c1 | 6.31 | 12.6 | 6.31 | 15.8 | 15.8 | 25.1 | 20 | 20 | 0.631 | 0.794 | 79.4 | > 100
O=C(Nc1cccc(S(=O)(=O)Nc2ccc(Br)cc2)c1)c1ccc([N+](=O)[O-])s1 | 0.1 | 0.126 | 0.1 | 2.51 | 0.794 | 1 | 0.794 | 10 | 0.2 | 0.398 | 15.8 | 2.51
CCCn1c(NC(=O)CCn2cc(Br)cn2)nc2ccccc21 | 5.01 | 6.31 | 2.51 | 25.1 | 10 | 10 | 5.01 | > 50.1 | 7.94 | 7.94 | > 100 | 10
c1ccc2[nH]c(-c3ccc(N4CCCC4)nc3)nc2c1 | 1 | 1.58 | 1 | > 50.1 | 5.01 | > 50.1 | > 50.1 | 31.6 | 0.794 | 1 | > 100 | > 100
Nc1nonc1-c1nc2cncc(C(=O)N3CC[C@H](N)C3)c2n1CC1CC1 | > 50.1 | > 50.1 | 12.6 | > 50.1 | > 50.1 | 20 | 39.8 | 12.6 | 0.631 | 0.794 | > 100 | 12.6
O=C1CN(Cc2ccco2)C2CS(=O)(=O)CC2N1c1ccc(Cl)cc1 (centres undefined) | > 50.1 | > 50.1 | > 50.1 | > 50.1 | > 50.1 | > 50.1 | > 50.1 | > 50.1 | 0.316 | 0.251 | > 100 | > 100
NS(=O)(=O)c1ccc(CNC(=O)c2ccc([N+](=O)[O-])s2)cc1 | 1 | 5.01 | 0.794 | 20 | 31.6 | 25.1 | 12.6 | 39.8 | 0.251 | 0.251 | 15.8 | 39.8
COC(=O)c1ccc(-c2cnc3ccc(NCc4ccccn4)nn23)cc1 | 7.94 | 7.94 | 5.01 | > 50.1 | 12.6 | > 50.1 | 15.8 | 12.6 | 0.631 | 1 | 100 | 1.26
CC(C)Nc1nc(Cl)nc2ccccc12 | 3.98 | 10 | 3.98 | 7.94 | 20 | 2.51 | 1.26 | 20 | 5.01 | 12.6 | 39.8 | > 100
COc1ccc2ncc(Cl)c(CCN3CC[C@@H](NCc4cc5c(cn4)OCS5)[C@H](O)C3)c2n1 | 0.126 | 0.0794 | 0.0631 | 25.1 | 10 | 12.6 | 7.94 | 25.1 | 0.316 | 0.398 | 50.1 | 1
CC1CCCCN1C(=O)NCCc1coc(-c2ccc(F)cc2)n1 (centres undefined) | 0.398 | 0.316 | 0.316 | > 50.1 | > 50.1 | > 50.1 | > 50.1 | > 50.1 | 0.126 | 0.158 | > 100 | > 100
O=C(NCCCn1cnc2ccccc21)c1ccc(NC(=O)c2ccco2)cc1 | 3.98 | 2 | 1.26 | > 50.1 | 1.26 | > 50.1 | 12.6 | > 50.1 | 0.2 | 0.251 | 15.8 | 15.8
O=C(Nc1nccs1)c1ccccc1Cn1cc([N+](=O)[O-])cn1 | > 50.1 | > 50.1 | > 50.1 | > 50.1 | > 50.1 | > 50.1 | > 50.1 | > 50.1 | 0.316 | 0.501 | > 100 | > 100
CNC(=O)C1Cc2ccccc2N1C(=O)Cc1ccc(OC)cc1 (centres undefined) | > 50.1 | > 50.1 | > 50.1 | > 50.1 | > 50.1 | 7.94 | 12.6 | 7.94 | 0.398 | 0.501 | > 100 | > 100
COCCn1cnc2cc(NC(=O)C3CCCCC3)cc(C(=O)N3CCc4sccc4C3)c21 | 20 | 31.6 | 20 | > 50.1 | > 50.1 | > 50.1 | > 50.1 | > 50.1 | 0.794 | 1 | > 100 | 50.1

Source: ChEMBL document CHEMBL3430912, “GSK Tres Cantos Anti-Kinetoplastid Screening (TCAKS) Data”
